System: Escherichia coli
Assay: minimum inhibitory concentration (MIC)
Experimental: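 Broth microdilution MIC (Sensititre BOPO7F bovine plate, CLSI methods) of 19 antimicrobials against field isolates of P. multocida, M. haemolytica, H. somni (deep nasopharyngeal swabs) and E. coli, Enterococcus spp. (rectal swabs) from weaned dairy heifers. Incubation 16-24 h at 35 C. MIC is the lowest concentration preventing visible growth. Values with <= or > lie at the tested range limits. Trimethoprim-sulfamethoxazole is given as the trimethoprim component of a 1:19 mixture.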

CC[C@H]1OC(=O)C[C@@H](O)[C@H](C)[C@@H](O[C@@H]2O[C@H](C)[C@@H](O[C@H]3C[C@@](C)(O)[C@@H](O)[C@H](C)O3)[C@H](N(C)C)[C@H]2O)[C@@H](CC=O)C[C@@H](C)C(=O)/C=C/C(C)=C/[C@@H]1CO[C@@H]1O[C@H](C)[C@@H](O)[C@@H](OC)[C@H]1OC [Tylosin]
Conditions	minimum inhibitory concentration [µg/mL]
isolate (source animal id): 8	> 32
isolate (source animal id): 9	> 32
isolate (source animal id): 10	> 32
isolate (source animal id): 11	> 32
isolate (source animal id): 12	> 32
isolate (source animal id): 13	> 32
isolate (source animal id): 14	> 32
isolate (source animal id): 15	> 32
isolate (source animal id): 16	> 32
isolate (source animal id): 98	> 32
isolate (source animal id): 99	> 32
isolate (source animal id): 100	> 32
isolate (source animal id): 101	> 32
isolate (source animal id): 102	> 32
isolate (source animal id): 103	> 32
isolate (source animal id): 104	> 32
isolate (source animal id): 105	> 32
isolate (source animal id): 106	> 32
isolate (source animal id): 107	> 32
isolate (source animal id): 108	> 32
isolate (source animal id): 109	> 32
isolate (source animal id): 110	> 32
isolate (source animal id): 111	> 32
isolate (source animal id): 112	> 32
isolate (source animal id): 113	> 32
isolate (source animal id): 114	> 32
isolate (source animal id): 115	> 32
isolate (source animal id): 116	> 32
isolate (source animal id): 117	> 32
isolate (source animal id): 118	> 32
isolate (source animal id): 119	> 32
isolate (source animal id): 120	> 32
isolate (source animal id): 121	> 32
isolate (source animal id): 122	> 32
isolate (source animal id): 123	> 32
isolate (source animal id): 124	> 32
isolate (source animal id): 125	> 32
isolate (source animal id): 126	> 32
isolate (source animal id): 127	> 32
isolate (source animal id): 128	> 32
isolate (source animal id): 129	> 32
isolate (source animal id): 130	> 32
isolate (source animal id): 131	> 32
isolate (source animal id): 132	> 32
isolate (source animal id): 133	> 32
isolate (source animal id): 134	> 32
isolate (source animal id): 135	> 32
isolate (source animal id): 136	> 32
isolate (source animal id): 137	> 32
isolate (source animal id): 138	> 32
isolate (source animal id): 139	> 32
isolate (source animal id): 140	> 32
isolate (source animal id): 141	> 32
isolate (source animal id): 142	> 32
isolate (source animal id): 143	> 32
isolate (source animal id): 144	> 32
isolate (source animal id): 145	> 32
isolate (source animal id): 146	> 32
isolate (source animal id): 147	> 32
isolate (source animal id): 148	> 32
isolate (source animal id): 149	> 32
isolate (source animal id): 150	> 32
isolate (source animal id): 151	> 32
isolate (source animal id): 152	> 32
isolate (source animal id): 153	> 32
isolate (source animal id): 154	> 32
isolate (source animal id): 155	> 32
isolate (source animal id): 156	> 32
isolate (source animal id): 157	> 32
isolate (source animal id): 158	> 32
isolate (source animal id): 159	> 32
isolate (source animal id): 160	> 32
isolate (source animal id): 161	> 32
isolate (source animal id): 162	> 32
isolate (source animal id): 163	> 32
isolate (source animal id): 164	> 32
isolate (source animal id): 165	> 32
isolate (source animal id): 166	> 32
isolate (source animal id): 167	> 32
isolate (source animal id): 168	> 32
isolate (source animal id): 169	> 32
isolate (source animal id): 170	> 32
isolate (source animal id): 171	> 32
isolate (source animal id): 172	> 32
isolate (source animal id): 173	> 32
isolate (source animal id): 174	> 32
isolate (source animal id): 175	> 32
isolate (source animal id): 176	> 32
isolate (source animal id): 177	> 32
isolate (source animal id): 178	> 32
isolate (source animal id): 179	> 32
isolate (source animal id): 180	> 32
isolate (source animal id): 181	> 32
isolate (source animal id): 182	> 32
isolate (source animal id): 183	> 32
isolate (source animal id): 184	> 32
isolate (source animal id): 185	> 32
isolate (source animal id): 186	> 32
isolate (source animal id): 187	> 32
isolate (source animal id): 188	> 32

COc1cc(NS(=O)(=O)c2ccc(N)cc2)nc(OC)n1 [sulfadimethoxine]
Conditions	minimum inhibitory concentration [µg/mL]
isolate (source animal id): 8	> 256
isolate (source animal id): 9	> 256
isolate (source animal id): 10	> 256
isolate (source animal id): 11	≤ 256
isolate (source animal id): 12	> 256
isolate (source animal id): 13	≤ 256
isolate (source animal id): 14	> 256
isolate (source animal id): 15	≤ 256
isolate (source animal id): 16	> 256
isolate (source animal id): 98	≤ 256
isolate (source animal id): 99	≤ 256
isolate (source animal id): 100	> 256
isolate (source animal id): 101	> 256
isolate (source animal id): 102	> 256
isolate (source animal id): 103	> 256
isolate (source animal id): 104	> 256
isolate (source animal id): 105	> 256
isolate (source animal id): 106	> 256
isolate (source animal id): 107	> 256
isolate (source animal id): 108	> 256
isolate (source animal id): 109	≤ 256
isolate (source animal id): 110	> 256
isolate (source animal id): 111	> 256
isolate (source animal id): 112	> 256
isolate (source animal id): 113	> 256
isolate (source animal id): 114	≤ 256
isolate (source animal id): 115	> 256
isolate (source animal id): 116	> 256
isolate (source animal id): 117	> 256
isolate (source animal id): 118	≤ 256
isolate (source animal id): 119	> 256
isolate (source animal id): 120	> 256
isolate (source animal id): 121	> 256
isolate (source animal id): 122	> 256
isolate (source animal id): 123	> 256
isolate (source animal id): 124	> 256
isolate (source animal id): 125	> 256
isolate (source animal id): 126	> 256
isolate (source animal id): 127	> 256
isolate (source animal id): 128	> 256
isolate (source animal id): 129	> 256
isolate (source animal id): 130	> 256
isolate (source animal id): 131	> 256
isolate (source animal id): 132	> 256
isolate (source animal id): 133	> 256
isolate (source animal id): 134	> 256
isolate (source animal id): 135	≤ 256
isolate (source animal id): 136	> 256
isolate (source animal id): 137	≤ 256
isolate (source animal id): 138	> 256
isolate (source animal id): 139	> 256
isolate (source animal id): 140	≤ 256
isolate (source animal id): 141	> 256
isolate (source animal id): 142	> 256
isolate (source animal id): 143	> 256
isolate (source animal id): 144	> 256
isolate (source animal id): 145	> 256
isolate (source animal id): 146	> 256
isolate (source animal id): 147	> 256
isolate (source animal id): 148	> 256
isolate (source animal id): 149	> 256
isolate (source animal id): 150	> 256
isolate (source animal id): 151	> 256
isolate (source animal id): 152	> 256
isolate (source animal id): 153	> 256
isolate (source animal id): 154	> 256
isolate (source animal id): 155	> 256
isolate (source animal id): 156	> 256
isolate (source animal id): 157	> 256
isolate (source animal id): 158	> 256
isolate (source animal id): 159	> 256
isolate (source animal id): 160	> 256
isolate (source animal id): 161	> 256
isolate (source animal id): 162	> 256
isolate (source animal id): 163	> 256
isolate (source animal id): 164	> 256
isolate (source animal id): 165	> 256
isolate (source animal id): 166	> 256
isolate (source animal id): 167	> 256
isolate (source animal id): 168	≤ 256
isolate (source animal id): 169	≤ 256
isolate (source animal id): 170	> 256
isolate (source animal id): 171	≤ 256
isolate (source animal id): 172	≤ 256
isolate (source animal id): 173	> 256
isolate (source animal id): 174	≤ 256
isolate (source animal id): 175	> 256
isolate (source animal id): 176	> 256
isolate (source animal id): 177	> 256
isolate (source animal id): 178	> 256
isolate (source animal id): 179	≤ 256
isolate (source animal id): 180	> 256
isolate (source animal id): 181	> 256
isolate (source animal id): 182	> 256
isolate (source animal id): 183	> 256
isolate (source animal id): 184	> 256
isolate (source animal id): 185	> 256
isolate (source animal id): 186	≤ 256
isolate (source animal id): 187	> 256
isolate (source animal id): 188	> 256

— the supplement of paper PMC8612539
